Calls of active or inactive are those of the source.
What was measured:
[1] = antiviral protection against BTV-induced cell death – arbovirus, BSR cells, confirmation (AID 1250); format: functional;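 note: protection from viral cytopathic effect measured as cell viability by ATP luminescence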
[2] = test system: Streptococcus sp. 'group A'; assay: Streptococcus pyogenes SK(-)GAS viability under kanamycin – luminescence, BacTiterGlo, confirmation, counter-screen for streptokinase expression inhibitor project, dose response (AID 1900); format: functional, organism-based
[3] = molecular target: Induced myeloid leukemia cell differentiation protein Mcl-1 (Homo sapiens, UniProt Q07820); format: functional
Induced myeloid leukemia cell differentiation protein Mcl-1, sequence (Q07820 whole entry, the tested form may be a part): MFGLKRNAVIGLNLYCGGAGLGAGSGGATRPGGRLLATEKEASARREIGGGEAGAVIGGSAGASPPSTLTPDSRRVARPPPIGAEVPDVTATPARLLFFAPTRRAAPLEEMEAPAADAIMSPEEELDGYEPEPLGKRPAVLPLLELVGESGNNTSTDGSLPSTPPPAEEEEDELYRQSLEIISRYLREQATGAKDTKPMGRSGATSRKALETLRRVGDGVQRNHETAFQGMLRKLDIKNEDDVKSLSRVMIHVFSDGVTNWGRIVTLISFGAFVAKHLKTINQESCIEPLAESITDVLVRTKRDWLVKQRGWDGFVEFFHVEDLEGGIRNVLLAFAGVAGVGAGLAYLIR

[4] = CCR5-tropic HIV-1 fusion blockers – cell-based, CCR5-tropic Env, dose response (AID 2279); format: functional
[5] = test system: Streptococcus; assay: GAS UMAA2166 growth inhibition – luminescence, BacTiterGlo, counter-screen for streptokinase expression inhibitor project, dose response (AID 1915); format: functional, organism-based;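 note: potency for reduction of bacterial viability or growth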
[6] = molecular target: T1, Streptokinase A (Streptococcus pyogenes serotype M1, UniProt P10520); assay: viability-normalized secreted streptokinase activity reduction – plasminogen activation absorbance, OD405, dose response (AID 1914); format: functional, Streptococcus pyogenes M1 GAS;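 note: secreted streptokinase activity via plasminogen activation per viability signal from cell pellet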
T1 sequence (P10520 whole entry): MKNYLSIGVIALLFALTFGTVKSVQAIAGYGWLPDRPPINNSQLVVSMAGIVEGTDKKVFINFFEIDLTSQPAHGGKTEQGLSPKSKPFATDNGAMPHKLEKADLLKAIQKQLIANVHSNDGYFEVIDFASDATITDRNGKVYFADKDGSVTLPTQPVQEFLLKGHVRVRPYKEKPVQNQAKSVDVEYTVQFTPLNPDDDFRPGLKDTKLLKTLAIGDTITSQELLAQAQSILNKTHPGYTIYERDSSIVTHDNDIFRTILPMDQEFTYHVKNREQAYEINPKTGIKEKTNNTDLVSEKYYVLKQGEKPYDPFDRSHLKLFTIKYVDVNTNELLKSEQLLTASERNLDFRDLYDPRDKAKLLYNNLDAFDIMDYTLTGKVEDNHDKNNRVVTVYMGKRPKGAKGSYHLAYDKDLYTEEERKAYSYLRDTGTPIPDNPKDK

[7] = molecular target: T2, Estrogen receptor (Homo sapiens, UniProt P03372); assay: blockers of SRC-3 recruitment to ERα – biochemical, ELISA, streptavidin-HRP readout, orthogonal assay, confirmation (AID 1079)
T2 sequence (P03372 whole entry): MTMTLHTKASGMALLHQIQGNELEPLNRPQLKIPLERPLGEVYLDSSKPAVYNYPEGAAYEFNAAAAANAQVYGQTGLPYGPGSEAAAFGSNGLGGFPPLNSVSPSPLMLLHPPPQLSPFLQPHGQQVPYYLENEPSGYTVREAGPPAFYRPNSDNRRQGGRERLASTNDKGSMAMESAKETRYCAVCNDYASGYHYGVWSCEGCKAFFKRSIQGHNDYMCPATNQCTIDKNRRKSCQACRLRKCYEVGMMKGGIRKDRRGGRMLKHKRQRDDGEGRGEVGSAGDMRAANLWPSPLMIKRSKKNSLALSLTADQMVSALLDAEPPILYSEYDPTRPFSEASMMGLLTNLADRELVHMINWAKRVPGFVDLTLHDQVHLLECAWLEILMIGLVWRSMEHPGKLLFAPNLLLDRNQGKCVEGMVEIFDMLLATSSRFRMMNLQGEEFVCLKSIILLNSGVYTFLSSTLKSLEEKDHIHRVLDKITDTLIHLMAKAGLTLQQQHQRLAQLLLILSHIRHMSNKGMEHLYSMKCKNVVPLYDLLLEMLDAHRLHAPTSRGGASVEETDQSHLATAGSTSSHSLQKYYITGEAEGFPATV

[8] = molecular target: Sphingosine 1-phosphate receptor 2 (Homo sapiens, UniProt O95136); assay: Dose Response Cell Based Assay for Agonists of the S1P2 Receptor of Purchased Analogues. [Related pubchem assays: 729, 843, 854, 736 ]; format: functional
Sphingosine 1-phosphate receptor 2, sequence (O95136 whole entry): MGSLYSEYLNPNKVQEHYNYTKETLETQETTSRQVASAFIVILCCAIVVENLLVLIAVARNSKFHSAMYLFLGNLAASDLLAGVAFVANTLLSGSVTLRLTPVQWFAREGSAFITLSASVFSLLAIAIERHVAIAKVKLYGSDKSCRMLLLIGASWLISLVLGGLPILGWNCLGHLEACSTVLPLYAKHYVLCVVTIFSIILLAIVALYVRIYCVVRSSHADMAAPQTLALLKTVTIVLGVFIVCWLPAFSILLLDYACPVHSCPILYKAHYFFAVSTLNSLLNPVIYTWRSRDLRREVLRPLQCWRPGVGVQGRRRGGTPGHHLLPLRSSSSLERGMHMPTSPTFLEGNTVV

[9] = A cytotoxicity screen of small molecule inhibitors of the PhoP region in Salmonella typhi identified in the primary screen. [Related pubchem assays: 1850, 1864, 1985 ]; format: functional
[10] = molecular target: Heat shock protein HSP 90-alpha (Homo sapiens, UniProt P07900); format: functional, organism-based
[11] = molecular target: NS3 (Hepatitis C virus, UniProt A3EZJ3); assay: PubChem AID 2173; design: species or system Hepacivirus hominis
NS3, sequence (A3EZJ3 whole entry): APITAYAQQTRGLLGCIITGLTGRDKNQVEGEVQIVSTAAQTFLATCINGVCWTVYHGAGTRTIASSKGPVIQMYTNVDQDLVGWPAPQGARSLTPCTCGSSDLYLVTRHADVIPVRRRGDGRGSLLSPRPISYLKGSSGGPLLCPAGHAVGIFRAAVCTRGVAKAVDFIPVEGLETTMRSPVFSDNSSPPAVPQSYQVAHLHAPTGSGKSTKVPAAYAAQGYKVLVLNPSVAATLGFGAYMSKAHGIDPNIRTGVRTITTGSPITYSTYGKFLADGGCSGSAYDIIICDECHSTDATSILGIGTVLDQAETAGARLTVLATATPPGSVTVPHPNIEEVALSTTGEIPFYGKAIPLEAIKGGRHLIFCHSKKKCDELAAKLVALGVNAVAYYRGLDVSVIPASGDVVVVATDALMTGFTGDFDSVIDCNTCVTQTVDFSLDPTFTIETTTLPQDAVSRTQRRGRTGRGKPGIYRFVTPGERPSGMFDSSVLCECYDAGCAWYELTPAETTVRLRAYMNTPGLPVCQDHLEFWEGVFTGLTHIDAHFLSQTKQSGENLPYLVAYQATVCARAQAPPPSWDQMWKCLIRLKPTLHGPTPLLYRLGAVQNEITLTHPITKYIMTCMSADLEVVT

[12] = THP-1 cell cytotoxicity, dose response, cytotoxicity control for non-replicating M. tuberculosis project (AID 489025); format: functional
[13] = microbe, parasite or virus in culture; format: functional; details: Mycobacterium tuberculosis
[14] = alpha-synuclein stem-loop luciferase translation blockers – H4 neuroglioma cells, luminescence, confirmation (AID 1988); format: functional, cell-based
[15] = HEK-293T viability loss after treatment – luminescence, T-cell screen hits, cytotoxicity control for TCR NF-kB inhibitor project, dose response (AID 489026); format: functional, cell-based;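 note: cells exposed to compound about 14 hours before the viability readout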
[16] = Vero E6 cell cytotoxicity, dose response, cytotoxicity control for non-replicating M. tuberculosis project, secondary assay (AID 492998); format: functional, VeroE6; details: Vero C1008
[17] = cells; format: functional
[18] = cells; format: functional, cell-based
[19] = test system: INS1; assay: INS-1E survival protection against cytokine death – cell-based, luminescence, retest, dose response (AID 449756); format: functional; details: Rattus norvegicus;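 note: cell death triggered by IL-1 beta plus TNF-alpha plus IFN-gamma mixture; protective hits raise ATP signal compared with cytokine alone wells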
[20] = luciferase reporter signal reduction – luminescence, H4-C neuroglioblastoma cells, dose response (AID 2458); format: functional, cell-based;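 note: H4 neuroglioblastoma cells stably carrying a luciferase reporter gene fusion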
[21] = alpha-synuclein stem-loop translation blockers – luminescence, H4 neuroglioblastoma cells, dose confirmation, confirmation (AID 2454); format: functional, cell-based;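 note: H4 neuroglioblastoma cells carrying an alpha-synuclein 5'UTR luciferase reporter; potency for inhibition of the luciferase signal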
[22] = molecular target: T3, Fatty acid synthase (Homo sapiens, UniProt P49327); assay: inhibition of human FAS-TE enzyme activity – biochemical, kinetic fluorescence intensity, dose response (AID 624326); format: functional;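 note: rate of fluorescence rise from hydrolysis of a fluorogenic O-methyl fluorescein ester substrate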
T3 sequence (P49327 whole entry): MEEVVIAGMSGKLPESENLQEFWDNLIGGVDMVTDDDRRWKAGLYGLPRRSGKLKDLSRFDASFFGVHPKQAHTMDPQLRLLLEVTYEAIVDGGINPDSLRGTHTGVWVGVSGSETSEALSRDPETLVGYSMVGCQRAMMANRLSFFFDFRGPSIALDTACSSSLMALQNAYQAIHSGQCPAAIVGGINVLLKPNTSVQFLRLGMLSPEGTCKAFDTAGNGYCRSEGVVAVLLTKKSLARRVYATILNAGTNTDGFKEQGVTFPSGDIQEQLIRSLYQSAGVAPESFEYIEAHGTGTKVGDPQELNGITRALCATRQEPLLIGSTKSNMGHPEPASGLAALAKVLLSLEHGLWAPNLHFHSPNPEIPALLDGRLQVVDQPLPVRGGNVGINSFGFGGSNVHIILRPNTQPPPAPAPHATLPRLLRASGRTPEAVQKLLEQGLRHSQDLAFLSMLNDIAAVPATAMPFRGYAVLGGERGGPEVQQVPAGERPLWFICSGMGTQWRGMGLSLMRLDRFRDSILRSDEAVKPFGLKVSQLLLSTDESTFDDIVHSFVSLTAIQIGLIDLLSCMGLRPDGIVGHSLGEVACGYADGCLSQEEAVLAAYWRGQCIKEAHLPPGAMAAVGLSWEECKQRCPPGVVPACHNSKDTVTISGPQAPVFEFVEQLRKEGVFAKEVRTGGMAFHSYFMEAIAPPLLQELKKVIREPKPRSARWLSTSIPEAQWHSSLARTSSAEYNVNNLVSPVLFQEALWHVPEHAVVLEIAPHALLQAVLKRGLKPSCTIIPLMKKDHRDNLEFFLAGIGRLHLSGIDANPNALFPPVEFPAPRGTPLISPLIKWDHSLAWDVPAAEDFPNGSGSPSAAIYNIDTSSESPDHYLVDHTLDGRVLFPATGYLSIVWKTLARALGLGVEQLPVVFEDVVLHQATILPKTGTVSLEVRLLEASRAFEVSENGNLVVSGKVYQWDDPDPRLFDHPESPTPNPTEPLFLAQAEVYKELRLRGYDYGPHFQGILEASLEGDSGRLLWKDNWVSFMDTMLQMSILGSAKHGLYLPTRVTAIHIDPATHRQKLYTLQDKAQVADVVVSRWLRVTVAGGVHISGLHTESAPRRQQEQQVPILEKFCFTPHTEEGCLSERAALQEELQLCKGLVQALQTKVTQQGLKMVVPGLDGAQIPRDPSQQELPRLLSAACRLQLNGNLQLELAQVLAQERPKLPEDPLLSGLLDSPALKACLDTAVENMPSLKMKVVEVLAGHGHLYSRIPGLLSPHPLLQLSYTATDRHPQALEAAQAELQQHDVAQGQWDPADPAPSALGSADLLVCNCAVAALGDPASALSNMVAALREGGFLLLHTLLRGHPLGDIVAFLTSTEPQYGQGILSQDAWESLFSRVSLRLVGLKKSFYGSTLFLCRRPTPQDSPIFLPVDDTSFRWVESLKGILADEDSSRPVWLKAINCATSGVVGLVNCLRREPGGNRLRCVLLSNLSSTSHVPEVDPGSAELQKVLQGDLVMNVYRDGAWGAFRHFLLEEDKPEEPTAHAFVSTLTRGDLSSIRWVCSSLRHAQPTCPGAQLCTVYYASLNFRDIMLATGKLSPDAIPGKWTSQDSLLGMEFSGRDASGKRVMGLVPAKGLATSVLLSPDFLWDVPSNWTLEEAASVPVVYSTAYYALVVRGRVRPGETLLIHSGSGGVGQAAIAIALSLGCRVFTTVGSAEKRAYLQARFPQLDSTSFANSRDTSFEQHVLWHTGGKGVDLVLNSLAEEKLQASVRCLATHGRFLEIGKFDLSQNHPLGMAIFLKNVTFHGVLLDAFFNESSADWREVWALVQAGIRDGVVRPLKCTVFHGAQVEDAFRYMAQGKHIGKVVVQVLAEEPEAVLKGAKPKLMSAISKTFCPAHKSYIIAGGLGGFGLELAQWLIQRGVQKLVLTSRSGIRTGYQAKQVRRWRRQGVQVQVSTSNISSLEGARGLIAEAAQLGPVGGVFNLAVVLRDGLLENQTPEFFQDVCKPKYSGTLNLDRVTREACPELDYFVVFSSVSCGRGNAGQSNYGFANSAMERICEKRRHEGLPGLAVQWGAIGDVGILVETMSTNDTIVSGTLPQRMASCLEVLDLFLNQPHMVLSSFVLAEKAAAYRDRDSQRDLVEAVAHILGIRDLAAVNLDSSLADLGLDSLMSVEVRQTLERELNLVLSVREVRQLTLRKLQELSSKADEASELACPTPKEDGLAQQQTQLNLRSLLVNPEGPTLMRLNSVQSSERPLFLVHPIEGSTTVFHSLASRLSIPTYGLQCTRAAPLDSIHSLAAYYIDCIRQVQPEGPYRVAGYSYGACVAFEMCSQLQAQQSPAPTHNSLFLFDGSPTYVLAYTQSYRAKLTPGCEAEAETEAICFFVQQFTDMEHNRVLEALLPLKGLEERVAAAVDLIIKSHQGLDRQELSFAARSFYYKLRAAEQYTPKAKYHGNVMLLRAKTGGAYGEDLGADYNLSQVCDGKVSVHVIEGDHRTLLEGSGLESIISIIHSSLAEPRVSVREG

[23] = molecular target: 5-hydroxytryptamine receptor 1E (Homo sapiens, UniProt P28566); assay: Counterscreen assay for S1P3 antagonists: Dose response cell-based high throughput screening assay to identify antagonists of the 5-Hydroxytryptamine Receptor Subtype 1E (5HT1E). [Related pubchem assays: 1429, 485 ]; format: functional
5-hydroxytryptamine receptor 1E, sequence (P28566 whole entry): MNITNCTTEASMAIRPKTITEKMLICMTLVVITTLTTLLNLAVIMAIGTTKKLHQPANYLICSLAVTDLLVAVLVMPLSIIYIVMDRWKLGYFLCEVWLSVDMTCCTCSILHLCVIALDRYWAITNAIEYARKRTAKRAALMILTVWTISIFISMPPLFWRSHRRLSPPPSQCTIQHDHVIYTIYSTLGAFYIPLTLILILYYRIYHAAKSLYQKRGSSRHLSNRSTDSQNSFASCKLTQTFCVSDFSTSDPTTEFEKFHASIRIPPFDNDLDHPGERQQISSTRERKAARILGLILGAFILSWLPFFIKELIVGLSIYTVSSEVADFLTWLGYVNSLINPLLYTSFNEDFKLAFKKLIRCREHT

[24] = molecular target: Sphingosine 1-phosphate receptor 3 (Homo sapiens, UniProt Q99500); assay: Dose response cell-based high throughput screening assay for antagonists of the Sphingosine 1-Phosphate Receptor 3 (S1P3). [Related pubchem assays: 1429, 485 ]; format: functional
Sphingosine 1-phosphate receptor 3, sequence (Q99500 whole entry): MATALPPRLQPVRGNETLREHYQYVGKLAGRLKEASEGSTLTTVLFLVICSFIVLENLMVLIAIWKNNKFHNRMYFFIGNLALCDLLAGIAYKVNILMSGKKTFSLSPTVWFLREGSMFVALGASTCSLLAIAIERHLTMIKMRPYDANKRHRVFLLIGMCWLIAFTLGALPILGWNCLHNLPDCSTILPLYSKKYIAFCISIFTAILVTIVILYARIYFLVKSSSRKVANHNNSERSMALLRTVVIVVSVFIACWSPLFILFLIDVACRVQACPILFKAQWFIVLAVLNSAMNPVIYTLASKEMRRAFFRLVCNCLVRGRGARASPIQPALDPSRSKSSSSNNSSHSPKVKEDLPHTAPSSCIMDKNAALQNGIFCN

[25] = molecular target: T3, Fatty acid synthase; assay: inhibition of human FAS-TE enzyme activity – biochemical, endpoint fluorescence intensity, uHTS hits, dose response (AID 624327); format: functional;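 note: fluorescence from hydrolysis of an O-methyl fluorescein acyl ester substrate by the enzyme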

COc1ccc(/C=C/C(=O)Nc2cc(C(F)(F)F)ccc2Cl)cc1OC
IC50 [1]: 27.9 µM (active)

CC(C)(C)c1cc(-c2csc(Nc3ccccc3)[n+]2Cc2ccc(C(=O)O)cc2)cc(C(C)(C)C)c1O
EC50 [2]: 1.64 µM (active) | IC50 [3]: 2.01 µM (active) | IC50 [4]: 20.7 µM (active) | EC50 [5]: 2.87 µM (active) | EC50 [6]: > 150 µM (not active)

O=C(CCCn1c(=S)[nH]c2ccccc2c1=O)N1CCN(c2ccc(Cl)cc2)CC1
IC50 [7]: 19.8 µM (not active)

CNC(=O)c1ccc(CN(C)CC(=O)c2cc(C)n(Cc3ccccc3)c2C)cc1
EC50 [8]: > 30 µM (not active)

Cc1ccsc1/C=N\NC(=O)c1ccc2c(c1)OCO2
EC50 [9]: > 50 µM (active)

O=C(N/N=C/c1cc(Cl)c(O)c(Cl)c1)c1cc2c(ccc3ccccc32)o1
AC50 [10]: 4.54 µM (active) | IC50 [11]: 4.26 µM (active)

CCOc1ccc(Nc2cc(C)nc(-n3nc(C)cc3C)n2)cc1
EC50 [2]: 7.01 µM (active) | CC50 [12]: 0.357 µM (active) | CC50 [13]: 6.26 µM (active) | EC50 [14]: < 0.1 µM (active) | IC50 [15]: > 80 µM (inactive) | CC50 [16]: 1.14 µM (active) | IC50 [17]: 0.56 µM (active) | EC50 [18]: 0.969 µM (active) | AC50 [19]: 2.55 µM (active) | EC50 [20]: 0.588 µM (active) | EC50 [5]: > 150 µM (not active) | EC50 [21]: 0.88 µM (active) | EC50 [6]: > 150 µM (not active)

Cc1ccc(NC(=O)C2(c3ccc([N+](=O)[O-])cc3)CCCC2)cc1
IC50 [22]: 8.73 µM (active) | IC50 [23]: 9.48 µM (active) | IC50 [24]: 6.92 µM (active) | IC50 [25]: 14.6 µM (active)

From ChEMBL document CHEMBL1201862, “PubChem BioAssay data set” (2004)
